Data published in patent US20240336593A1, “Compound Having Antitumor Activity And Use Thereof” (lnnovStoneTherapeutics Limited, priority 2020, published 2024).

What was measured:
[1] = test system: Xenograft models of small cell lung cancer (SCLC), non-small cell lung cancer (NSCLC), acute myeloid leukemia (AML) and non-Hodgkin's lymphoma; details: cited from earlier work
PRMT5 = PRMT5 (Homo sapiens (Human), UniProt O14744); assay: Inhibitory activity against PRMT5 enzyme by radioisotopic method; type: biochemical; details: PRMT5 5 nM, [3H]-SAM 0.3 μM, polypeptide substrate GL-27 100 nM, room temperature
Sequence of PRMT5 (O14744 whole entry): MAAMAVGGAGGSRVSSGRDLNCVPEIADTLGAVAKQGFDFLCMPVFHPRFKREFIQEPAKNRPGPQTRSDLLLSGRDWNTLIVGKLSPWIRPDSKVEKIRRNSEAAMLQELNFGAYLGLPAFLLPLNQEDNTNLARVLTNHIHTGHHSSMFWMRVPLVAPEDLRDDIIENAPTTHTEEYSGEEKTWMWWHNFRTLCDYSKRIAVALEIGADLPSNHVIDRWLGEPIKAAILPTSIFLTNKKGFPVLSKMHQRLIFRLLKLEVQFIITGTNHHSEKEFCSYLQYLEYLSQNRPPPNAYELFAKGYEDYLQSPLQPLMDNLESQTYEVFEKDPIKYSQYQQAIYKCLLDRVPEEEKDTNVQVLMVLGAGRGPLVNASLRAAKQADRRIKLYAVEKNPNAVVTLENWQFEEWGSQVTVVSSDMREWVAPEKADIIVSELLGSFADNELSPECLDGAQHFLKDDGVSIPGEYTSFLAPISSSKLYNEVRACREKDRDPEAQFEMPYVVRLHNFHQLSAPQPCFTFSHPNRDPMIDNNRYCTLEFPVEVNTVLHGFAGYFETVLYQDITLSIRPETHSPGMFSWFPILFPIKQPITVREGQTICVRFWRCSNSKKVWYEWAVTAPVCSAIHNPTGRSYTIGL
Sequence of PRMT5 (Q9BQA1 whole entry partner): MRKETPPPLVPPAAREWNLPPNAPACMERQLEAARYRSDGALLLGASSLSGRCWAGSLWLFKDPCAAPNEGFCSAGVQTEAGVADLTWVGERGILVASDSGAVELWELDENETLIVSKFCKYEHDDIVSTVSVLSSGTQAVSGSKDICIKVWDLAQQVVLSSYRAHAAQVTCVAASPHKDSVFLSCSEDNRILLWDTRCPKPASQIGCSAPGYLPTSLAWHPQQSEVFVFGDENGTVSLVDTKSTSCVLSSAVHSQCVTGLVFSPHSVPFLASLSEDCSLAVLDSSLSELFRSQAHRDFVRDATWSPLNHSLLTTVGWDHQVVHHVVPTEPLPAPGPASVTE
Outline: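 PRMT5 (5 nM) preincubated with compound and [3H]-SAM (0.3 μM) 60 min at RT in Tris pH 8.0/Tween-20/DTT, 1% DMSO; biotinylated GL-27 peptide (100 nM) added, 120 min RT, stopped with cold SAM. Peptide captured on streptavidin FlashPlate, CPM counted; IC50 from four-parameter fit of % inhibition.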

SMILES | tumor growth inhibited [1] | IC50 (PRMT5) [nM]
Nc1nc2cc(CC[C@H]3C[C@@H](n4ccc5c(N)ncnc54)[C@H](O)[C@@H]3O)ccc2cc1Br [JNJ-64619178] | up to 99% | 
O[C@H]1CN(c2cc(Nc3cccc4c3OCCO4)ncn2)CC[C@@H]1N1CCc2ccccc2C1 (relative stereo) [Example 94, trans-1-(6-((2,3-dihydrobenzo[b][1,4]dioxin-5-yl)amino)pyrimidin-4-yl)-4-(3,4-dihydroisoquinolin-2(1H)-yl)piperidin-3-ol] |  | < 100
O=C(c1cc(Nc2cccc(N3CCCC3)c2)ncn1)N1CC[C@H](N2CCc3ccccc3C2)[C@@H](O)C1 [Example 108] |  | < 100
